From ChEMBL document CHEMBL1201862, “PubChem BioAssay data set” (2004)
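Exposure lasted 48 hours, with cells grown in 96-well plates and compounds tested at five concentrations. At the GI50, growth is halved.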 Active and inactive are the calls of the source. Cut-off read from the data, not from the text of the source: active = GI50 up to about 1.1 µM and inactive = higher.

Columns and labels:
Assay in all cases: inhibition of tumour cell growth, NCI panel, 48 h
HT-29 = tested on: HT-29
RPMI-8226 = tested on: RPMI-8226
PC-3 = tested on: PC-3
K562 = tested on: K562
SK-MEL-28 = tested on: SK-MEL-28
COLO 205 = tested on: COLO 205
BT-549 = tested on: BT-549
NCI-H460 = tested on: NCI-H460
SF-295 = tested on: SF-295
SK-MEL-2 = tested on: SK-MEL-2
HOP-92 = tested on: HOP-92
HCT-116 = tested on: HCT-116
HOP-62 = tested on: HOP-62
ACHN = tested on: ACHN
OVCAR-4 = tested on: OVCAR-4
A498 = tested on: A498
LOX IMVI = tested on: LOX IMVI
SF-539 = tested on: SF-539
Hs-578T = tested on: Hs-578T

| Compound | GI50 (HT-29) | GI50 (RPMI-8226) | GI50 (PC-3) | GI50 (K562) | GI50 (SK-MEL-28) | GI50 (COLO 205) | GI50 (BT-549) | GI50 (NCI-H460) | GI50 (SF-295) | GI50 (SK-MEL-2) | GI50 (HOP-92) | GI50 (HCT-116) | GI50 (HOP-62) | GI50 (ACHN) | GI50 (OVCAR-4) | GI50 (A498) | GI50 (LOX IMVI) | GI50 (SF-539) | GI50 (Hs-578T) |
| --- | --- | --- | --- | --- | --- | --- | --- | --- | --- | --- | --- | --- | --- | --- | --- | --- | --- | --- | --- |
| O/N=C1\CC2(N3CCOCC3)CCC1(c1ccccc1)CC2 | > 100 µM (inactive) | > 100 µM (inactive) | > 100 µM (inactive) | > 100 µM (inactive) | > 100 µM (inactive) | > 100 µM (inactive) | > 100 µM (inactive) | > 100 µM (inactive) | > 100 µM (inactive) | > 100 µM (inactive) | > 100 µM (inactive) | > 100 µM (inactive) | > 100 µM (inactive) | > 100 µM (inactive) | > 100 µM (inactive) | > 100 µM (inactive) | > 100 µM (inactive) | > 100 µM (inactive) | > 100 µM (inactive) |
| COc1ccc(/C=C(/C#N)C(N)=O)c(OC)c1 | > 100 µM (inactive) | > 100 µM (inactive) | 97.3 µM (inactive) | 31.8 µM (inactive) | > 100 µM (inactive) | > 100 µM (inactive) | > 100 µM (inactive) | > 100 µM (inactive) | 82.8 µM (inactive) | 50.4 µM (inactive) | 36.4 µM (inactive) | 64 µM (inactive) | > 100 µM (inactive) | > 100 µM (inactive) | > 100 µM (inactive) | 10.8 µM (inactive) | > 100 µM (inactive) | > 100 µM (inactive) | > 100 µM (inactive) |
| COc1ccc(/C=C2\N=C(c3ccccc3)OC2=O)cc1OC(C)=O | 47.3 µM (inactive) | 32 µM (inactive) | 31.1 µM (inactive) | 44.9 µM (inactive) | > 100 µM (inactive) | > 100 µM (inactive) | > 100 µM (inactive) | > 100 µM (inactive) | – | 27.5 µM (inactive) | 54.1 µM (inactive) | 58.9 µM (inactive) | 94.2 µM (inactive) | 33.6 µM (inactive) | 63.1 µM (inactive) | > 100 µM (inactive) | 51.3 µM (inactive) | > 100 µM (inactive) | 26.3 µM (inactive) |
| Cc1cccc(NC(=S)Nc2ccc(Cl)cc2)n1 | > 100 µM (inactive) | > 100 µM (inactive) | > 100 µM (inactive) | > 100 µM (inactive) | > 100 µM (inactive) | > 100 µM (inactive) | > 100 µM (inactive) | > 100 µM (inactive) | > 100 µM (inactive) | > 100 µM (inactive) | > 100 µM (inactive) | > 100 µM (inactive) | > 100 µM (inactive) | > 100 µM (inactive) | > 100 µM (inactive) | > 100 µM (inactive) | > 100 µM (inactive) | > 100 µM (inactive) | > 100 µM (inactive) |
| FC(F)(F)c1ccccc1N1CCN(c2nc(-c3cccs3)nc3ccc(Br)cc23)CC1 | 29.5 µM (inactive) | 11.2 µM (inactive) | 11.7 µM (inactive) | 63.1 µM (inactive) | 35.8 µM (inactive) | 23.4 µM (inactive) | 50 µM (inactive) | 27.7 µM (inactive) | 30.3 µM (inactive) | 24.9 µM (inactive) | < 0.01 µM (active) | 33.2 µM (inactive) | 50.4 µM (inactive) | 36.6 µM (inactive) | 5.16 µM (inactive) | 71.3 µM (inactive) | 34.7 µM (inactive) | 97.3 µM (inactive) | 36.5 µM (inactive) |
| COc1ccc2c3c1O[C@H]1C(=O)C=CC4(n5[nH]c(=O)n(-c6ccccc6)c5=O)C(C2)N(C)CCC314 (stereo partly drawn) | > 100 µM (inactive) | > 100 µM (inactive) | > 100 µM (inactive) | > 100 µM (inactive) | > 100 µM (inactive) | > 100 µM (inactive) | > 100 µM (inactive) | – | > 100 µM (inactive) | > 100 µM (inactive) | > 100 µM (inactive) | > 100 µM (inactive) | > 100 µM (inactive) | > 100 µM (inactive) | > 100 µM (inactive) | > 100 µM (inactive) | > 100 µM (inactive) | > 100 µM (inactive) | > 100 µM (inactive) |
| O=C(O)c1cccc(OCCOc2cccc(C(=O)O)c2[N+](=O)[O-])c1[N+](=O)[O-] | > 100 µM (inactive) | > 100 µM (inactive) | > 100 µM (inactive) | – | > 100 µM (inactive) | > 100 µM (inactive) | > 100 µM (inactive) | > 100 µM (inactive) | > 100 µM (inactive) | > 100 µM (inactive) | > 100 µM (inactive) | > 100 µM (inactive) | > 100 µM (inactive) | > 100 µM (inactive) | > 100 µM (inactive) | > 100 µM (inactive) | > 100 µM (inactive) | > 100 µM (inactive) | > 100 µM (inactive) |
| Cc1c(C)c(S(=O)(=O)N(CCCN)OCCCN)c(C)c2c1OC(C)(C)CC2 | 15.1 µM (inactive) | 17.6 µM (inactive) | 12 µM (inactive) | 15.2 µM (inactive) | 15.2 µM (inactive) | 17.5 µM (inactive) | 17.5 µM (inactive) | 15.8 µM (inactive) | 16.3 µM (inactive) | 17.5 µM (inactive) | 7.5 µM (inactive) | 16.5 µM (inactive) | 13.3 µM (inactive) | 16.1 µM (inactive) | 8.17 µM (inactive) | 12.9 µM (inactive) | 13.3 µM (inactive) | – | 14.8 µM (inactive) |
